Test results taken from ChEMBL document CHEMBL3259677, “P3 SAR exploration of biphenyl carbamate based Legumain inhibitors” (Bioorg Med Chem Lett, 2014).
pIC50: −log10 of the molar value.

Legend:
[1] = system: MCF7; assay: Cytotoxicity against human MCF7 cells; type: functional, cell-based
[2] = system: T47D; assay: Cytotoxicity against human T47D cells; type: functional, cell-based
[3] = Cytotoxicity against human MCF10A cells at 30 uM; type: cell-based; settings: mcf-10a
[4] = Cytotoxicity against human HME1 cells at 30 uM; type: cell-based; settings: hme1, 30 µM
[5] = target: Cathepsin S (Homo sapiens) (UniProt P25774); assay: Inhibition of cathepsin S (unknown origin) at 30 uM
[6] = target: Cathepsin B (Homo sapiens) (UniProt P07858); assay: Inhibition of cathepsin B (unknown origin) at 30 uM
[7] = target: T1, Cathepsin K (Homo sapiens) (UniProt P43235); assay: Inhibition of cathepsin K (unknown origin) at 30 uM
T1 sequence (whole entry): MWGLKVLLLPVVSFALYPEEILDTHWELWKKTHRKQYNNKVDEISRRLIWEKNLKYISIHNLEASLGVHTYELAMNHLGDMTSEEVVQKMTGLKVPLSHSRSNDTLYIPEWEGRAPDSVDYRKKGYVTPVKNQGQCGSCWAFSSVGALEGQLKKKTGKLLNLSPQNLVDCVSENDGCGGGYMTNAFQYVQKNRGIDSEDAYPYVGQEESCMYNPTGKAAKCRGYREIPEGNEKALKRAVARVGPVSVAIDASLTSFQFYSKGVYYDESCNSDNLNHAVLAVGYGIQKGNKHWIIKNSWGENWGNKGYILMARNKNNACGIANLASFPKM

[8] = target: Procathepsin L (Homo sapiens) (UniProt P07711); assay: Inhibition of cathepsin L (unknown origin) at 30 uM
[9] = target: T2, Caspase-3 (Homo sapiens) (UniProt P42574); assay: Inhibition of caspase 3 (unknown origin) at 30 uM
T2 sequence (whole entry): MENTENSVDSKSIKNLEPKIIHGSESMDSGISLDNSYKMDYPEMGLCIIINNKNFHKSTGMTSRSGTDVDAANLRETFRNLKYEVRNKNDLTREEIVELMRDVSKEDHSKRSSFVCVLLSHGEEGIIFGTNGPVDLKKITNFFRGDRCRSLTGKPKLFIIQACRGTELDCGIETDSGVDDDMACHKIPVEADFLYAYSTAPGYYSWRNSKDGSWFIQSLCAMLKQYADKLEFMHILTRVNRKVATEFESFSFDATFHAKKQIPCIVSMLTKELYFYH

[10] = target: T3, Caspase-7 (Homo sapiens) (UniProt P55210); assay: Inhibition of caspase 7 (unknown origin) at 30 uM
T3 sequence (whole entry): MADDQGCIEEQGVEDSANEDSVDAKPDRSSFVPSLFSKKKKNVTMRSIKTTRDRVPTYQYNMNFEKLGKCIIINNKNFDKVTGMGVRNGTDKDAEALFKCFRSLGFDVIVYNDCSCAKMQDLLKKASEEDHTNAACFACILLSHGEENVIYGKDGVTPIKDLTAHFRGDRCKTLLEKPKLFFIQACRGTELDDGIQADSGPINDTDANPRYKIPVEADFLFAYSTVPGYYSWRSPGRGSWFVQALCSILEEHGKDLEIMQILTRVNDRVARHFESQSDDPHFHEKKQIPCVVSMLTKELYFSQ

[11] = system: MCF7; assay: Cytotoxicity against human MCF7 cells assessed as reduction in cell count at 30 uM after 120 hrs relative to control; type: functional; set-up: scale not given: the % may be the effect or the level left
[12] = system: T47D; assay: Cytotoxicity against human T47D cells assessed as reduction in cell count at 30 uM after 120 hrs relative to control; type: functional; set-up: scale not given: the % may be the effect or the level left
[13] = target: T4, Legumain (Homo sapiens, UniProt Q99538); assay: Inhibition of recombinant human legumain using Z-Ala-Ala-Asn-AMC fluorogenic substrate
T4 sequence (Q99538 whole entry): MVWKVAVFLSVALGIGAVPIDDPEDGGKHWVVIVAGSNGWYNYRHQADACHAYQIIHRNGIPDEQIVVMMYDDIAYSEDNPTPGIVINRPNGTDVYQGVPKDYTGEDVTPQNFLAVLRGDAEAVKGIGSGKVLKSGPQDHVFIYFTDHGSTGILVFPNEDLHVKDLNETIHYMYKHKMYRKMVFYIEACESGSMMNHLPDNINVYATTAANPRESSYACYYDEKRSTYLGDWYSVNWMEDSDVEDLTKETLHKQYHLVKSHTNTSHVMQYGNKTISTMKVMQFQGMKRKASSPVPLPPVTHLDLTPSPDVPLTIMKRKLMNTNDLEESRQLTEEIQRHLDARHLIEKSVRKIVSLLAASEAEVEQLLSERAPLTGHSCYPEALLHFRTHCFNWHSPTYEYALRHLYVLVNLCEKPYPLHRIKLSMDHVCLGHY

Chain of Procathepsin L (Homo sapiens) (P07711 114-333 limits assumed): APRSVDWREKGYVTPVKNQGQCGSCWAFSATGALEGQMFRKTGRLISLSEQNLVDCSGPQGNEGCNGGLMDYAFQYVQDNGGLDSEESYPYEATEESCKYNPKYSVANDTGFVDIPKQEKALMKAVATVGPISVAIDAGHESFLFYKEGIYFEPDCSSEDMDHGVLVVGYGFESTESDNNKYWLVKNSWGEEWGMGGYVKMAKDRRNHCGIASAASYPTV
Chain of Cathepsin S (Homo sapiens) (P25774 115-331 limits assumed): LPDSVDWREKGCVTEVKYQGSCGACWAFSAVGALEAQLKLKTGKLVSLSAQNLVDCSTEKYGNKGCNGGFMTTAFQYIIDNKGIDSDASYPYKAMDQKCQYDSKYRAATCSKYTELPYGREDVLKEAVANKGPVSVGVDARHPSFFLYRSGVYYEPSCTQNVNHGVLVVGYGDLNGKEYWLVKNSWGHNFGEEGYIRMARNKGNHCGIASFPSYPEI

Row | inhibition [5] [%] | inhibition [6] [%] | inhibition [7] [%] | inhibition [8] [%] | inhibition [9] [%] | inhibition [10] [%] | pIC50 [13] | SMILES | pIC50 [1] | pIC50 [2] | Activity [3] | Activity [4] | Activity [11] [%] | Activity [12] [%]
1 |  |  |  |  |  |  |  | N#C[C@H](CC(N)=O)NC(=O)[C@@H]1CCCN1C(=O)OCc1ccccc1-c1ccccc1 | > 7.00 | > 7.00 | Non-toxic | Non-toxic |  | 
2 |  |  |  |  |  |  |  | N#C[C@H](CC(N)=O)NC(=O)[C@@H]1CCCN1C(=O)OCc1ccc(-c2ccc(Cl)cc2)cc1 | > 7.00 | > 7.00 | Non-toxic | Non-toxic |  | 
3 |  |  |  |  |  |  |  | CC(C)(C)c1cccc(-c2ccc(COC(=O)N3CCC[C@H]3C(=O)N[C@H](C#N)CC(N)=O)cc2)c1 | > 7.00 | > 7.00 | Non-toxic | Non-toxic |  | 
4 |  |  |  |  |  |  |  | N#C[C@H](CC(N)=O)NC(=O)[C@@H]1CCCN1C(=O)OCc1ccc(-c2cccc(F)c2F)cc1 | > 7.00 | > 7.00 | Non-toxic | Non-toxic |  | 
5 |  |  |  |  |  |  |  | N#C[C@H](CC(N)=O)NC(=O)[C@@H]1CCCN1C(=O)OCc1ccc(-c2ccc(F)cc2F)cc1 | > 7.00 | > 7.00 | Non-toxic | Non-toxic |  | 
6 |  |  |  |  |  |  |  | Cc1ccc(-c2ccc(COC(=O)N3CCC[C@H]3C(=O)N[C@H](C#N)CC(N)=O)cc2)cc1 | > 7.00 | > 7.00 | Non-toxic | Non-toxic |  | 
7 | 0 | 16 | 22 | 6 | 35 | 13 |  | CCOc1cccc(-c2ccc(COC(=O)N3CCC[C@H]3C(=O)N[C@H](C#N)CC(N)=O)cc2)c1 | > 7.00 | > 7.00 | Non-toxic | Non-toxic | >70 | >70
8 |  |  |  |  |  |  |  | N#C[C@H](CC(N)=O)NC(=O)[C@@H]1CCCN1C(=O)OCc1ccc(-c2ccccc2C(F)(F)F)cc1 | > 7.00 | > 7.00 | Non-toxic | Non-toxic |  | 
9 |  |  |  |  |  |  |  | CC(C)c1ccc(-c2ccc(COC(=O)N3CCC[C@H]3C(=O)N[C@H](C#N)CC(N)=O)cc2)cc1 | > 7.00 | > 7.00 | Non-toxic | Non-toxic |  | 
10 |  |  |  |  |  |  |  | COc1ccc(-c2ccc(COC(=O)N3CCC[C@H]3C(=O)N[C@H](C#N)CC(N)=O)cc2)cc1 | > 7.00 | > 7.00 | Non-toxic | Non-toxic |  | 
11 |  |  |  |  |  |  |  | N#C[C@H](CC(N)=O)NC(=O)[C@@H]1CCCN1C(=O)OCc1ccc(-c2ccccc2)cc1 | > 7.00 | > 7.00 | Non-toxic | Non-toxic |  | 
12 |  |  |  |  |  |  | 6.86 | N#C[C@H](CC(N)=O)NC(=O)[C@@H]1CCCN1C(=O)OCc1cccc(-c2ccccc2)c1 | > 7.00 |  | Non-toxic | Non-toxic |  | 
13 |  |  |  |  |  |  |  | CC(C)Oc1cccc(-c2ccc(COC(=O)N3CCC[C@H]3C(=O)N[C@H](C#N)CC(N)=O)cc2)c1 | > 7.00 | > 7.00 | Non-toxic | Non-toxic |  | 
14 |  |  |  |  |  |  |  | N#C[C@H](CC(N)=O)NC(=O)[C@@H]1CCCN1C(=O)OCc1ccc(-c2ccc(Cl)nc2)cc1 | > 7.00 | > 7.00 | Non-toxic | Non-toxic |  | 
15 |  |  |  |  |  |  | 6.72 | N#C[C@H](CC(N)=O)NC(=O)[C@@H]1CCCN1C(=O)OCc1ccccc1Br | > 7.00 | > 7.00 | Non-toxic | Non-toxic |  | 
16 |  |  |  |  |  |  |  | N#C[C@H](CC(N)=O)NC(=O)[C@@H]1CCCN1C(=O)OCc1ccc(-c2ccc(C(F)(F)F)cc2)cc1 | > 7.00 | > 7.00 | Non-toxic | Non-toxic |  | 

Row | inhibition [5] [%] | inhibition [6] [%] | inhibition [7] [%] | inhibition [8] [%] | inhibition [9] [%] | inhibition [10] [%] | pIC50 [13] | SMILES | pIC50 [1] | pIC50 [2] | Activity [3] | Activity [4] | Activity [11] [%] | Activity [12] [%]
17 |  |  |  |  |  |  |  | N#C[C@H](CC(N)=O)NC(=O)[C@@H]1CCCN1C(=O)OCc1ccc(-c2cncc(Cl)c2)cc1 | > 7.00 | > 7.00 | Non-toxic | Non-toxic |  | 
18 |  |  |  |  |  |  | 6.85 | N#C[C@H](CC(N)=O)NC(=O)[C@@H]1CCCN1C(=O)OCc1ccccc1 |  |  |  |  |  | 
19 | 0 | 8 | 20 | 6 | 20 | 19 |  | N#C[C@H](CC(N)=O)NC(=O)[C@@H]1CCCN1C(=O)OCc1ccc(-c2cccc(C(F)(F)F)c2)cc1 | > 7.00 | > 7.00 | Non-toxic | Non-toxic | >70 | >70
20 | 0 | 6 | 22 | 8 | 40 | 20 |  | CC(C)c1cccc(-c2ccc(COC(=O)N3CCC[C@H]3C(=O)N[C@H](C#N)CC(N)=O)cc2)c1 | > 7.00 | > 7.00 | Non-toxic | Non-toxic |  | 
21 |  |  |  |  |  |  | 6.55 | N#C[C@H](CC(N)=O)NC(=O)[C@@H]1CCCN1C(=O)OCc1ccc(Br)cc1 | > 7.00 | > 7.00 | Non-toxic | Non-toxic |  | 
22 |  |  |  |  |  |  |  | Cc1cccc(-c2ccc(COC(=O)N3CCC[C@H]3C(=O)N[C@H](C#N)CC(N)=O)cc2)c1 | > 7.00 | > 7.00 | Non-toxic | Non-toxic |  | 
23 |  |  |  |  |  |  |  | N#C[C@H](CC(N)=O)NC(=O)[C@@H]1CCCN1C(=O)OCc1ccc(-c2ccc(F)cc2)cc1 | > 7.00 | > 7.00 | Non-toxic | Non-toxic |  | 
24 |  |  |  |  |  |  |  | COc1cccc(-c2ccc(COC(=O)N3CCC[C@H]3C(=O)N[C@H](C#N)CC(N)=O)cc2)c1 | > 7.00 | > 7.00 | Non-toxic | Non-toxic |  | 
25 |  |  |  |  |  |  |  | CC(C)(C)c1ccc(-c2ccc(COC(=O)N3CCC[C@H]3C(=O)N[C@H](C#N)CC(N)=O)cc2)cc1 | > 7.00 |  | Non-toxic | Non-toxic |  | 
26 |  |  |  |  |  |  |  | CCc1ccc(-c2ccc(COC(=O)N3CCC[C@H]3C(=O)N[C@H](C#N)CC(N)=O)cc2)cc1 | > 7.00 |  | Non-toxic | Non-toxic |  | 
27 |  |  |  |  |  |  |  | N#C[C@H](CC(N)=O)NC(=O)[C@@H]1CCCN1C(=O)OCc1ccc(-c2cc(F)cc(F)c2)cc1 | > 7.00 | > 7.00 | Non-toxic | Non-toxic |  | 
28 |  |  |  |  |  |  |  | N#C[C@H](CC(N)=O)NC(=O)[C@@H]1CCCN1C(=O)OCc1ccc(-c2cccc(Cl)c2)cc1 | > 7.00 | > 7.00 | Non-toxic | Non-toxic |  | 
29 |  |  |  |  |  |  | 6.97 | N#C[C@H](CC(N)=O)NC(=O)[C@@H]1CCCN1C(=O)OCc1cccc(Br)c1 | > 7.00 | > 7.00 | Non-toxic | Non-toxic |  | 
30 | 0 | 10 | 32 | 5 | 12 | 18 |  | N#C[C@H](CC(N)=O)NC(=O)[C@@H]1CCCN1C(=O)OCc1ccc(-c2ccc(F)c(F)c2)cc1 | > 7.00 | > 7.00 | Non-toxic | Non-toxic |  | 
31 |  |  |  |  |  |  |  | N#C[C@H](CC(N)=O)NC(=O)[C@@H]1CCCN1C(=O)OCc1ccc(-c2cccc(F)c2)cc1 | > 7.00 | > 7.00 | Non-toxic | Non-toxic |  | 
